From US20200131270A1, “COMBINATION USE OF INHIBITOR TARGETING PD-1/PD-L1 AND COX-2 INHIBITOR” (priority 2017, published 2020) come the findings set out here.

The subject of assay [1] is PBMCs derived from uninfected cattle. In words: PBMC culture under anti-CD3/anti-CD28 stimulation: cell proliferation (CFSE) and cytokine production (ELISA). Conditions: 3 days. On the technique in general: An ELISA detects its analyte on a solid surface through an enzyme-linked reagent.
A further assay relates to canine PBMCs. Kind of assay: Cytokine production from canine PBMCs stimulated with SEB and anti-CD28 (ELISA). The assay is classed as cell-based. The settings on record: PGE2 2.5 μM; SEB + anti-CD28, 3 days.
For assay [2], the system named is PBMCs derived from uninfected cattle. Kind of assay: PD-L1 protein expression in bovine PBMCs (flow cytometry). Type of assay: cell-based. Conditions: PGE2 added, 24 hours. (In flow cytometry, cells or beads pass a laser one at a time.)
Assay [3] has the same test system. Kind of assay: mRNA expression in bovine PBMCs (real-time PCR). Type of assay: cell-based. As to the method: Using the synthesized cDNA as a template, real-time PCR was performed with LightCycler480 System II (Roche) in a 10 μl reaction solution containing SYBR Premix DimerEraser (TaKaRa) and 3 pmol each of the primers specific to individual genes. Then, changes in expression levels of individual genes were observed. After 45 cycles of thermal denaturation, annealing and extension, the temperature was raised from 65° C. to 95° C. at 0.1° C./sec for melting curve analysis. The melting temperatures of amplified products were measured to confirm specificity. For each sample, expression levels of genes ACTB and GAPDH were quantified as internal standards. […] Then, real-time PCR was performed using PDL1 specific primers.
(Quantitative PCR measures a nucleic acid by following its amplification.)

The next assay relates to BLV provirus. The assay is classed as cell-based, cattle.
Where [4] appears, read: PGE2 25 nM, 250 nM and 2,500 nM.

With `CCCCC[C@H](O)/C=C/[C@H]1[C@H](O)CC(=O)[C@@H]1C/C=C\CCCC(=O)O` [PGE2, prostaglandin E2], in assay [1] (setting [4]), the IFN-γ production entry was “significantly inhibited”, the “proliferation of CD4^+ cells” value is listed as “significantly inhibited” and the “proliferation of CD8^+ cells” value is reported as “significantly inhibited”. Besides, the TNF-α production result in assay [1] (PGE2 2,500 nM) is on record as “significantly inhibited”. In the assay on canine PBMCs, the “IFN-γ production from canine PBMCs” value is “significantly decreased” and the “IL-2 production from canine PBMCs” value is reported as “significantly decreased”. Besides, the “expression of PD-L1 protein” value in assay [2] was “significantly increased”. In addition, in assay [3] (PGE2 2,500 nM, 3 days), the “expression level of Foxp3” value is recorded as “significantly increased”, the “expression level of IFNγ” value is on record as “significantly decreased”, the “expression level of IL-2” value is “significantly decreased” and the “expression level of IL-10” value is reported as “significantly increased”. Also, in assay [3] (PGE2 2,500 nM, 3 days), the “expression level of STAT3” value was “significantly increased”, the “expression level of TGFβ1” value is given as “significantly increased” and the “expression level of TNFα” value is recorded as “significantly decreased”. For the same compound, in assay [3] (PGE2 added, 24 hours), the “expression of PD-L1 mRNA” value was “significantly increased”. Besides, the “BLV provirus load in PBMCs” value in the assay on BLV provirus is recorded as “increase significantly”.
